Laboratory results published in patent US5527703A (Merck & Co., Inc., priority 1994, dated 1996).

How the values were obtained:
GluCl α&β [1] = molecular target: T1, GluCl α&β (Caenorhabditis elegans, UniProt G5EBR3+Q17328); test: Modulation of glutamate-sensitive current by IVMPO4, GluCl α&β injected oocytes; format: cell-based, C. elegans
T1 construct: the full-length open reading frame of the GluCl cDNA encoding the GluClα (52,550 kDa) and GluClβ (49,900kDa) subunits; expressed in transfected cells; host or cells: Xenopus laevis oocytes injected with in vitro RNA
T1 sequence (G5EBR3 21-461): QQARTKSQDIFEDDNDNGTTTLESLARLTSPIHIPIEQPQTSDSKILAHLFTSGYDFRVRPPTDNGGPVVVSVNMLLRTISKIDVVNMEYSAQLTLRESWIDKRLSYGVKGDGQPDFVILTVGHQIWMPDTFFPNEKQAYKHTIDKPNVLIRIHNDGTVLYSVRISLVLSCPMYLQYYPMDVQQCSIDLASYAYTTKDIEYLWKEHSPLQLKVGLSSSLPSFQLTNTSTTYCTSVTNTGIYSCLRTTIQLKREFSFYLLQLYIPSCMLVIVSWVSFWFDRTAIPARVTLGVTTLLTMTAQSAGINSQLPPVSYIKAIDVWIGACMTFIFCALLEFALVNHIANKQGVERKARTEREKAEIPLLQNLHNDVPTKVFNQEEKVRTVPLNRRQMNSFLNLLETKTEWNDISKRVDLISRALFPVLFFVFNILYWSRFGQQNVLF
T1 sequence (Q17328 23-434): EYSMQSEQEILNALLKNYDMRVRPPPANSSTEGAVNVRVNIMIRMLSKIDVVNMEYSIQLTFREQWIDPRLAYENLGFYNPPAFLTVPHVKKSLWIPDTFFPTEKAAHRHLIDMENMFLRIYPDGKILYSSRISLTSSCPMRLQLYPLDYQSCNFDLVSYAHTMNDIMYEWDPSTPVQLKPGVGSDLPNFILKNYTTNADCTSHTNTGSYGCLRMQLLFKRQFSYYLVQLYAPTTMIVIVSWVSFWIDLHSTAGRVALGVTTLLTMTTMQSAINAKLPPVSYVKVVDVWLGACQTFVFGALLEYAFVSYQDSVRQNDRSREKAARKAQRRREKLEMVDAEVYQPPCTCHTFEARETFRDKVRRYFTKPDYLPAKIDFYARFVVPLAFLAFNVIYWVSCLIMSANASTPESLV
Description: Xenopus laevis oocytes were prepared and injected using standard methods previously described and known in the art [Arena, J. P., Liu. K. K., Paress, P. S. & Cully. D. F. Mol. Pharmacol. 40, 368-374 (1991 ); Arena, J. P., Liu, K. K., Paress, P. S., Schaeffer, J. M. & Cully, D. F. Mol. Brain Res. 15, 339-348 (1992)]. Adult female Xenopus laevis were anesthetized with 0.17% tricaine methanesulfonate and the ovaries were surgically removed and placed in a dish consisting of (mM): NaCl 1 82.5, KCl 2. MgCl2 1, CaCl2 1.8, HEPES 5 adjusted to pH 7.5 with NaOH (OR-2). Ovarian lobes were broken open, rinsed several times, and gently shaken in OR-2 containing 0.2% collagenase (Sigma, Type 1A) for 2-5 hours. […]
Recordings were made at room temperature 2-10 days after injection. […] Data were acquired and analyzed using PCLAMP with a TL-1 interface (Axon Instruments, Foster City, Calif.). Membrane current at a holding potential of -80 mV was recorded. The amplitude of drug-sensitive current was determined by subtracting the holding current at -80 mV from the peak current obtained in the presence of drug. […] Current/voltage relationships (I/V) and reversal potentials (Erev) were determined using a 1-3 sec voltage ramp over the voltage range of -110 to +80 mV. […]

GluCl α&β [2] = molecular target: T1, GluCl α&β; test: Agonist activation of current in Xenopus oocytes injected with GluClα and GluClβ RNA (two-microelectrode voltage clamp); format: cell-based, C. elegans; conditions: for type of drug-sensitive current: GluCl α&β oocytes; for voltage dependence of current: I/V
Description: Xenopus laevis oocytes were prepared and injected using standard methods previously described and known in the art [Arena, J. P., Liu. K. K., Paress, P. S. & Cully. D. F. Mol. Pharmacol. 40, 368-374 (1991 ); Arena, J. P., Liu, K. K., Paress, P. S., Schaeffer, J. M. & Cully, D. F. Mol. Brain Res. 15, 339-348 (1992)]. Adult female Xenopus laevis were anesthetized with 0.17% tricaine methanesulfonate and the ovaries were surgically removed and placed in a dish consisting of (mM): NaCl 1 82.5, KCl 2. MgCl2 1, CaCl2 1.8, HEPES 5 adjusted to pH 7.5 with NaOH (OR-2). Ovarian lobes were broken open, rinsed several times, and gently shaken in OR-2 containing 0.2% collagenase (Sigma, Type 1A) for 2-5 hours. When approximately 50% of the follicular layers were removed, Stage V and VI oocytes were selected and placed in media consisting of (mM): NaCl 86, KCl 2, MgCl2 1, CaCl2 1.8, HEPES 5, Na pyruvate 2.5, theophylline 0.5, gentamicin 0.1 adjusted to pH 7.5 with NaOH (ND-96) for 24-48 hours before injection. Oocytes were injected with 50-70 nl of poly(A^+) RNA (1 mg/ml) or 50 nl of GluClα (0.1-100 ng) and/or GluClβ (0.1-100 ng). Control oocytes were injected with 50 nl of water. Oocytes were incubated for 2-10 days in ND-96 before recording. Incubations and collagenase digestion were carried out at 18° C.
Recordings were made at room temperature 2-10 days after injection. Unless otherwise indicated recordings were made in standard frog saline consisting of (mM): NaCl 115, KCl 2, MgCl2 1, CaCl2 1.8, HEPES 10 adjusted to pH 7.5 with NaOH. Oocytes were voltage-clamped using a standard two microelectrode amplifier (Dagan 8500 or TEV-200, Minneapolis,Minn.). Pipettes were filled with 3M KCl and had resistances between 0.5-3.0 M.OMEGA.. A plexiglass recording chamber (volume 200 μl) was constantly perfused at a rate of 10 ml/min. The recording chamber was connected to ground with a Ag/AgCl electrode directly, or through a 3M KCl agar bridge when extracellular chloride was varied. For low chloride solutions NaCl was replaced with equimolar concentrations of sodium isethionic acid. For low sodium solutions NaCl was replaced with equimolar KCl or choline Cl. Data were acquired and analyzed using PCLAMP with a TL-1 interface (Axon Instruments, Foster City, Calif.). Membrane current at a holding potential of -80 mV was recorded. The amplitude of drug-sensitive current was determined by subtracting the holding current at -80 mV from the peak current obtained in the presence of drug. Data were filtered at 30 Hz and sampled at 16.6 Hz. Current/voltage relationships (I/V) and reversal potentials (Erev) were determined using a 1-3 sec voltage ramp over the voltage range of -110 to +80 mV. For the ramps, data were filtered at 0.3-3 kHz and sampled at 160 Hz. Current in drug free solution was subtracted from current in the presence of drug to obtain drug-sensitive current/voltage relationships.
Electrophysiological properties were examined in oocytes injected with in vitro RNA from pGluClα and pGluClβ (FIG. 5).
Several ligand-gated ion channel agonists and antagonists were tested on oocytes injected with GluCl α&β (Table 1). […] 255, 449-464 (1976); Arena, J. P., Liu, K. K., Paress, P. S., Schaeffer, J. M. & Cully, D. F. Mol. Brain Res. 15, 339-348 (1992); Lea, T. J. & Usherwood, P. N. R. Comp. Gen. Pharmacol. 4, 351-363 (1973)].

Compound	Hill coefficient (glutamate) with coapplied IVMPO4 (GluCl α&β [1]; coapplication of IVMPO4 and glutamate)	activation of current / sensitivity of coexpressed GluCl α&β (GluCl α&β [2])	glutamate concentrations at which desensitization of the glutamate-sensitive current was observed (GluCl α&β [2]; GluCl α&β injected oocytes)	type of drug-sensitive current (GluCl α&β [2])	Hill coefficient (glutamate) (GluCl α&β [2]; GluCl α&β, no IVMPO4)	voltage dependence of current (GluCl α&β [2]; GluCl α&β)	potentiation of glutamate-sensitive current (GluCl α&β [1]; IVMPO4 5 nM)	Hill coefficient (IVMPO4) (GluCl α&β [2]; GluCl α&β)	time for maximal activation of IVMPO4-sensitive current (GluCl α&β [2]; GluCl α&β)	EC50 (GluCl α&β [2]; GluCl α&β, read-out: EC50 for IVMPO4 activation of current)	% of Glutamate 10 mM (GluCl α&β [2]; agonist 1 μM, -80 mV, % of response elicited with 10 mM glutamate)
N[C@@H](CCC(=O)O)C(=O)O [glutamate]	1.3	direct activation of current	greater than 1 mM	rapidly activating reversible	1.7	outwardly rectifying					
ivermectin-4-O-phosphate [IVMPO4]		direct activation of current		irreversible		outwardly rectifying	490±45%	2.5	42 ± 2 s	190 nM	117 ± 13%
